Experimental data reported in patent US3949075A, “Anti-microbial compounds of 2', 4' substituted anilides of substituted nitrosalicylic acid for quadruped animals” (Ferro Corporation, priority 1974, dated 1976).
Where two headings read alike, the source gives them in different places.

Experiments:
[1] = tested on: Haemonchus contortus; assay: Percent of Haemonchus destroyed or expelled in infected sheep (egg count after treatment); assay type: in vivo, Haemonchus contortus (in sheep); conditions: for Effectiveness at 15 mg/kg against Haemonchus: Table VI; for inhibition in vivo at 5 mg/kg / inhibition in vivo at 15 mg/kg / inhibition in vivo at 2 mg/kg: Haemonchus contortus
Experimental: Two groups of sheep were used in the tests. One group was used as a non-medicated control, while the other group was treated with the compound under investigation. Helminth-free young lambs were infected with about 10,000 filariform larvae of Haemonchus contortus. In three weeks when the infection became apparent, egg counts were made to determine the density of the worm burden.
The egg count was carried out using the following modified Stoll method. Three grams of sheep feces were taken rectally from each animal and placed in a Stoll flask. To each flask, tap water was added to the top line. The fecal pellets were too hard to break down, the flasks were closed with rubber stoppers and kept in the refrigerator for several hours. The flasks were thoroughly shaken and a 1 ml. sample was drawn from the middle using a wide mouth pipette. This 1 ml. sample was transferred to an 8 ml. plastic tube, to which enough saturated sodium chloride solution was added to reach the rim. The tubes were then centrifuged for 10 minutes at 1500 r.p.m. Then sodium chloride solution was added with a medicine dropper forming a concave miniscus. A cover glass was carefully added and the tubes were kept in a refrigerator for ten to twenty minutes. During that period, the nematode ova flowed upward and adhered to the bottom of the cover glass slip. At the end of the 20-minute period, the cover slip was carefully detached from the miniscus and transferred to a microscopic slide. The ova were then counted under a microscope equipped with 10X ocular and 10X objective lens. Each ovum under the microscope represented 20 ova in the sample.
Animals with sufficiently high egg counts were taken out of the pool and housed in experimental pens. Since the salicylanilides of the present invention are water insoluble, the compounds were first ground using a mortar and pestle and then were placed in a carboxymethyl cellulose solution. The particles were further micronized ultrasonically. The compound was then administered to two or three animals by Oesophageal gavage. Control, untreated animals, received only the carboxymethyl cellulose solution in a similar manner. On the sixth and seventh day after treatment, fecal pellets were taken from the rectum of the control as well as the treated animals and egg counts were made.
(§1) The results of tests on sheep in a manner described, supra, using compounds of the present invention are given in Table 1, Examples 5 through 13. The numbers in the column headed "Haemonchus (15 mg/kg)" refer to the percent of parasites destroyed or expelled when the indicated compound was introduced into the rumen of sheep at a dosage of 15 milligrams per kilogram of body weight. The values under "Tolerance (mg/kg)" refer to the highest test dosage in the milligrams of anthelmintic per kilogram of body weight at which the sheep developed no toxic symptoms. "Tol." is an abbreviation for "tolerated". The symbols R1 and R2 refer to those of Formula I in these and other following examples.
(§2) The data of the tables were generated using procedures previously described. The compounds tested are disubstituted and, except for Example 50 which is dibromo, are dichloro. Where the position for the substituents is other than 2' and 4', it is indicated. Under the indicated microorganisms, the values given in this and the following tables, should be read as: percentage of microorganism killed/dose in milligrams per kilogram of body weight. Under "Tolerance", the term "Tol." means "tolerated", "Tox." means "toxic", and "Sym." means "symptoms of toxic reaction", all at the dosage value which follows. It will be appreciated that there is no sharp toxicity end point in determining toxicity to living sheep.

[2] = tested on: Fasciola hepatica; assay: Test for activity against liver flukes, Fasciola hepatica, in infected sheep; assay type: in vivo; conditions: for inhibition in vivo at 15 mg/kg / inhibition in vivo at 5 mg/kg: Fasciola hepatica, read-out: Fasciola hepatica, percentage of microorganism killed
Experimental: Test for activity against liver flukes were conducted as follows:
Eggs of Fasciola hepatica were collected from the bile of donor sheep. The eggs were embryonated and snails were infected (the genus Lymnaea serves as intermediate host) to produce Metacercariae which are the infective forms for sheep. Each sheep was infected with 250 metacercariae intraruminally. When the infection became patent in ca. 80 days, egg counts were carried out to determine the degree of worm burden. The liver was processed to recover F. hepatica in the untreated and treated sheep.
as §2

[3] = tested on: Haemonchus and Fasciola hepatica; assay: Dual activity against Haemonchus and Fasciola in sheep and therapeutic ratio; assay type: in vivo; conditions: sheep, 5 mg./kg.
[4] = tested on: sheep; assay: Tolerance / toxicity in sheep; assay type: in vivo; design: key to Tolerance at 100 mg/kg / Tolerance at 50 mg/kg: "toxic" refers to death of sheep resulting from the use of the indicated compound at the indicated dosage; key to Tolerance: Tol.: tolerated; Tox.: toxic; Sym.: symptoms of toxic reaction
Experimental: as §1
The importance of the 2',4' substitution on the anilide moiety of Formula I is illustrated by the case of the dichloro substitution as summarized in Table III. […] This has been mentioned briefly hereinabove. As used herein, "toxic" refers to death of sheep resulting from the use of the indicated compound at the indicated dosage.
as §2

[5] = sheep, 5 mg/kg, Tables VIII-XI, read-out: Haemonchus, percentage of microorganism killed
[6] = sheep, 15 mg/kg, Tables VIII-XI, read-out: Haemonchus, percentage of microorganism killed
[7] = iv, sheep, 15 mg/kg, Tables III and IV, read-out: Effectiveness (%) at 15 mg/kg
[8] = sheep, intrarumenal, 15 mg/kg, Table II, read-out: Effectiveness in removal of Haemonchus
[9] = read-out: Effectiveness at 15 mg/kg against Haemonchus, sheep, 15 mg/kg, Table V
[10] = sheep, 15 mg/kg, Tables VIII-XI

## Cc1c([N+](=O)[O-])cc(C(C)(C)C)c(O)c1C(=O)Nc1c(Cl)cc(Cl)cc1Cl [Example 37]
[1]; sheep, 15 mg/kg
  Effectiveness at 15 mg/kg against Haemonchus: 73%

## Cc1ccc(NC(=O)c2c(C)c([N+](=O)[O-])cc(C(C)(C)C)c2O)cc1Cl [Example 72]
[1]; [5]
  inhibition in vivo at 5 mg/kg: 0%
[1]; [6]
  inhibition in vivo at 15 mg/kg: 80%

## Cc1c([N+](=O)[O-])cc(C(C)(C)C)c(O)c1C(=O)Nc1cc(Cl)ccc1Cl [Example 24, reference compound]
[2]
  inhibition in vivo at 15 mg/kg: 100%
[2]; sheep, Tables VIII-XI
  inhibition in vivo at 5 mg/kg: 0%
[2]; sheep
  activity against Fasciola, in words: no activity
[3]
  clinical effectiveness against either parasite, in words: would not be clinically effective against either parasite
[4]; 50 mg./kg., Tables VIII-X
  Tolerance: Tol.
[4]; 50 mg/kg
  toxic effects at 50 mg./kg.: shows toxic effects
[4]; 50 mg/kg, Tables III and IV
  Tolerance at 50 mg/kg: toxic
[1]; [7]
  inhibition in vivo at 15 mg/kg: 100%
[1]; read-out: Haemonchus, percentage of microorganism killed, sheep, 15 mg/kg, Tables VIII-XI
  inhibition in vivo at 15 mg/kg: 100%
[1]; [5]
  inhibition in vivo at 5 mg/kg: 61%
[1]; sheep, 5 mg/kg
  activity at 5 mg./kg.: 61%
[1]; sheep, 5 mg/kg, Tables III and IV
  Effectiveness (%) at 5 mg/kg: 61%

## Cc1c([N+](=O)[O-])cc(C(C)(C)C)c(O)c1C(=O)Nc1cc(Cl)cc(Cl)c1 [Example 26]
[2]
  inhibition in vivo at 15 mg/kg: 100%
[4]; 40 mg./kg., Table VIII
  Tolerance: Tol.
[1]; [7]
  inhibition in vivo at 15 mg/kg: 67%
[1]; [6]
  inhibition in vivo at 15 mg/kg: 67%
[1]; sheep
  effectiveness against the parasites, in words: too low to be useful

## Cc1c([N+](=O)[O-])cc(C(C)(C)C)c(O)c1C(=O)Nc1ccccc1C(F)(F)F [Example 14]
[1]; sheep, 15 mg/kg, Table V, read-out: Effectiveness at 15 mg/kg against Haemonchus
  inhibition in vivo at 15 mg/kg: 0%
[1]; [6]
  inhibition in vivo at 15 mg/kg: 0%
[1]; [8]
  inhibition in vivo at 15 mg/kg: 0%

## Cc1c([N+](=O)[O-])cc(C(C)(C)C)c(O)c1C(=O)Nc1cccc(I)c1 [33 I 3'-substitution]
[1]; [9]
  inhibition in vivo at 15 mg/kg: 0%
[1]; [6]
  inhibition in vivo at 15 mg/kg: 14%

## Cc1c([N+](=O)[O-])cc(C(C)(C)C)c(O)c1C(=O)Nc1ccc(I)cc1 [Example 9]
[2]; [10]
  inhibition in vivo at 15 mg/kg: 0%
[1]; [9]
  inhibition in vivo at 15 mg/kg: 93%
[1]; [5]
  inhibition in vivo at 5 mg/kg: 22%
[1]; [6]
  inhibition in vivo at 15 mg/kg: 93%
[1]; sheep, into rumen, 2 mg/kg, Table 1
  Haemonchus (2 mg/kg), percent of parasites destroyed or expelled: 14%
[1]; sheep, into rumen, 5 mg/kg, Table 1
  Haemonchus (5 mg/kg), percent of parasites destroyed or expelled: 22%
[1]; sheep, into rumen, 15 mg/kg, Table 1
  Haemonchus (15 mg/kg), percent of parasites destroyed or expelled: 93%

## Cc1c([N+](=O)[O-])cc(C(C)(C)C)c(O)c1C(=O)Nc1ccc(Br)cc1Br [Example 50]
[2]; sheep, Tables VIII-XI
  inhibition in vivo at 5 mg/kg: 100%
[1]; [5]
  inhibition in vivo at 5 mg/kg: 99.8%

## Cc1ccc(NC(=O)c2c(C)c([N+](=O)[O-])cc(C(C)(C)C)c2O)c(Cl)c1 [Example 71]
[1]; [6]
  inhibition in vivo at 15 mg/kg: 62%

## COc1cc(Cl)ccc1NC(=O)c1c(C)c([N+](=O)[O-])cc(C(C)(C)C)c1O [Example 22]
[1]; [8]
  inhibition in vivo at 15 mg/kg: 10%

## Cc1cc(I)ccc1NC(=O)c1c(C)c([N+](=O)[O-])cc(C(C)(C)C)c1O [Example 66]
[2]; sheep, Tables VIII-XI
  inhibition in vivo at 5 mg/kg: 100%
[2]; [10]
  inhibition in vivo at 15 mg/kg: 100%
[4]; 50 mg./kg., Tables VIII-X
  Tolerance: Sym.
[1]; sheep, 2 mg/kg, Tables VIII-XI, read-out: Haemonchus, percentage of microorganism killed
  inhibition in vivo at 2 mg/kg: 13%
[1]; [5]
  inhibition in vivo at 5 mg/kg: 88%

## Cc1cc(NC(=O)c2c(C)c([N+](=O)[O-])cc(C(C)(C)C)c2O)c(C)cc1Cl [Example 39]
[1]; sheep, 15 mg/kg
  Effectiveness at 15 mg/kg against Haemonchus: 0%

## Cc1cc(Br)ccc1NC(=O)c1c(C)c([N+](=O)[O-])cc(C(C)(C)C)c1O [Example 64]
[2]; sheep, Tables VIII-XI
  inhibition in vivo at 5 mg/kg: 100%
[4]; 50 mg./kg., Tables VIII-X
  Tolerance: Tox.
[4]; 50 mg./kg., Tables VIII-X, listed as 65
  Tolerance: Sym.
[1]; read-out: Haemonchus, percentage of microorganism killed, sheep, 2 mg/kg, Tables VIII-XI
  inhibition in vivo at 2 mg/kg: 38%
[1]; [5]
  inhibition in vivo at 5 mg/kg: 100%

## CCOC(=O)c1ccc(NC(=O)c2c(C)c([N+](=O)[O-])cc(C(C)(C)C)c2O)cc1 [Example 20]
[1]; [8]
  inhibition in vivo at 15 mg/kg: 18%
